Test [1] concerns primary astrocytes. In words: High throughput screening (HTS) for lactate secretion: acidification of extracellular medium (SNARF5). It is filed as cell-based, mouse. Set-up: key to Score / HTS Score (SNARF5) / Score_SNARF: fraction of plate positive-control activity (1 = 100%). The settings on record: for Score_SNARF: primary screening confirmation (SNARF5). As for the experimental part:
Primary cultures of cerebrocortical astrocytes were obtained from 1-2-day-old OF1 mouse pups (Charles River Laboratories). Briefly, cortices were isolated and minced in small pieces under a dissecting microscope. The cells were incubated for 30 min at 37° C. in a solution containing 20 U/ml of papain enzyme (Worthington Biochemical), L-cysteine 1 mM (Sigma), and 10 kU/ml DNase I (Worthington Biochemical) for an enzymatic dissociation. Papain activity was stopped by the addition of fetal calf serum (FCS) to the solution, and a single-cell suspension was then obtained by mechanical dissociation, which consisted in cells trituration in a DMEM (D7777, Sigma-Aldrich) medium (supplemented with 44 mm NaHCO3, and 10 ml/L antibiotic/antimycotic solution) containing 10% FCS. The cells were seeded at an average density of 6×10^4 cells/cm^2 in poly-D-lysine-coated 96, 12 or 6-well culture plates, depending on their use, and incubated at 37° C. in a humidified atmosphere containing 5% CO2/95% air. Culture medium was renewed twice per week. Cells were stimulated and harvested between DIV14 and DIV17, when confluence and cell growth were optimal.
Secretion of lactate in a high-throughput screening (HTS) fashion was measured indirectly through the acidification of extracellular medium. To this end, primary astrocytes grown in 96-well plates for 17 days were stimulated with the compounds as listed herein.
After washing the cells twice with stimulation medium (DMEM (D5030, Sigma), 3 mM NaHCO3 and 5 mM Glucose) at 37° C., cells were stimulated with the compounds at a final concentration of 10 uM (1% DMSO final) in 50 ul per well of stimulation medium supplemented with 10 uM of the extracellular pH sensor SNARF-5F %-(AND-6)-CAR (Life Technologies Corporation). Each compound was tested in two different plates for duplicates.
After 90 min stimulation, fluorescence was read at exc. (excitation) 480 nm/emm. (emission) 580 nm and at exc 480 nm/emm. 630 nm. The ratio of fluorescence between 630 nm and 580 emission values, which represents extracellular pH, was calculated.
In each plate, 8 wells were used for negative controls (DMSO) and 8 wells were used for positive controls (CCCP 2 uM in DMSO). Z prime values were calculated for each of the plates tested and values<0 were discarded.
The average and SD of compounds' values tested in duplicates were calculated, and compound was noted as HIT when the difference between compound's average and negative control's average was greater than three times the sum of compound's SD and negative controls' SD. Only scores greater than 40% were considered as lead Hits for the CDC54K library; for the remaining libraries, all hits were considered. Scores are calculated as the % of activity compared to the positive control in each plate (which is 100%).
Primary screening hits were cherry picked on new plates and confirmed for SNARF5 effect, after having discarded those compounds that are fluorescent (exc. 480 nm/emm. 580 nm or 630 nm) before stimulation. Extracellular medium was next analyzed for extracellular lactate quantification for secondary screening.
Identification of lactate-enhancing drugs with high throughput screening (HTS) experiments on astrocytes primary cultures using extracellular pH dye (SNARF5F 5-(and-6)-carboxylic acid) for 90 min. The procedure is described in Material and Methods (2. Cell culture, 2.1. HTS for lactate secretion and 2.2. Extracellular lactate quantification).
The procedure was performed as follows: • Primary screening: acidification of the extracellular medium • Primary screening confirmation: acidification of the extracellular medium, removal of compounds with fluorescent activity at exc. 480 nm/emm. 580 nm or 630 n. • Secondary screening: dosage of extracellular lactate

Test [2] has as its system primary astrocytes. In words: Extracellular lactate quantification. It counts as cell-based, mouse. The settings on record: Appendix I, secondary screening: extracellular lactate. As for the experimental part:
Secretion of L-lactate was determined in the extracellular medium of 96-well plated astrocytes after 90 min stimulation (at 37° C., in 5% CO2/95% air conditions) with the drug of interest. The stimulation medium was composed of D5030 medium (completed with D-glucose 5 mM and 44 mM sodium bicarbonate) for 90 min in concentrations ranging from 0 to 100 μM.
Briefly, 200 μl of a Glycine (Sigma)-Semicarbazide (Acros) 0.2M pH 10 buffer containing 3 mM NAD (Roche) and LDH 14 U/ml (Roche) was added to each well of a 96-well plate containing 30 μl aliquots complemented with 20 μl fresh complete D5030 medium. Samples were incubated at 37° C. for 1 h. After samples cooled down at room temperature, the fluorescence intensity (340 nm excitation/450 nm emission) that represents the amount of NADH produced was measured, and lactate concentration values were determined from a standard curve of L-lactate.
Statistical analysis consisted in ANOVA followed by Fisher LSD post-hoc test for pair-wise comparisons.
Levels of lactate secreted by astrocytes were measured in the extracellular medium at 90 min after stimulation with hits (molecules) from the CDC54K library.

The mark [3] stands for this setting: Appendix I, CDC54K primary screening, 10 uM, 90 min, relative to CCCP 2 uM.

`CCc1ccc(S(=O)(=O)N2CCSC2c2ccc(OC)c(OC)c2)cc1` (stereo not shown) [4052-4304] yielded a Score_SNARF in test [1] (Appendix I) of 0.4491. The Score_LACTATE in test [2] worked out at 0.4335.
In test [1] (Prestwick library, 10 uM, 90 min, activity relative to positive control CCCP 2 uM), `Clc1ccc2c(c1)CCc1cccnc1C2=C1CCNCC1` [Desloratadine] gave a Score of 0.06079. Also, in test [1] (Prestwick library, 10 uM, 90 min, relative to positive control CCCP 2 uM), the “HTS Score (lactate)” value is 0.061.
As to `Cc1oc2ncnc(N3CCCC(C(=O)NCc4ccccn4)C3)c2c1C` (stereo not shown) [F228-0350], the Score_SNARF in test [1] (Appendix I) turned out to be 1.011. The Score_LACTATE in test [2] is on record as 1.023.
The matching figures for `Cc1oc2ncnc(N3CCCC(C(=O)NCc4cccnc4)C3)c2c1C` (stereo not shown) [F228-0351]: 0.82 and 0.8985.
On the same counts, the results for `Cc1oc2ncnc(N3CCCC(C(=O)NCc4ccccc4)C3)c2c1C` (stereo not shown) [F228-0365] are 0.9429 and 0.9001.
The compound `CCNC(=O)C1CCCN(c2ncnc3oc(C)c(C)c23)C1` (stereo not shown) [F228-0534] showed a Score_SNARF in test [1] (Appendix I) of 0.5203. The Score_LACTATE in test [2] is on record as 0.3387.
The matching figures for `CNC(=O)C1CCCN(c2ncnc3oc(C)c(C)c23)C1` (stereo not shown) [F228-0541]: 0.3609 and 0.
The compound `Cc1nc(N2CCCC(C(=O)NCc3cccnc3)C2)c2c(C)c(C)oc2n1` (stereo not shown) [F228-0856] yielded a Score_SNARF in test [1] (Appendix I) of 0. The Score_LACTATE in test [2] was found to be 0.
For `COc1ccc(Cl)cc1S(=O)(=O)NCc1ccncc1` [F0376-0203], the Score_SNARF in test [1] (Appendix I) amounted to 0. This compound had a Score_LACTATE in test [2] of 0.
For `Cc1cccc([N+]2=C3SCCCN3C(O)(c3ccc(Cl)cc3)C2)c1.[Br-]` (stereo not shown) [F0522-0533], in test [1] (Appendix I), the Score_SNARF was 0.4705. In test [2], this compound gave a Score_LACTATE of 0.
On the same counts, the results for `COc1ccccc1[N+]1=C2CCCCN2C(O)(c2ccc(F)cc2)C1.[Br-]` (stereo not shown) [F0524-0338] are 0.634 and 1.585.
On the same counts, the results for `OC1(c2ccccc2)C[N+](c2ccc(Cl)cc2)=C2CCCCN21.[Br-]` (stereo not shown) [F0524-0488] are 0.3489 and 0.
The compound `COc1ccc(C2(O)C[N+](c3ccccc3C)=C3CCCCN32)cc1.[Br-]` (stereo not shown) [F0524-0507] registered a Score_SNARF in test [1] (Appendix I) of 0.4491. In addition, the Score_LACTATE in test [2] amounted to 0.
Take `CCOc1ccc(C2(O)C[N+](c3ccccc3C)=C3CCCCN32)cc1.[Br-]` (stereo not shown) [F0524-0511]: in test [1] (Appendix I), the Score_SNARF is reported as 0.5555. For the same compound, the Score_LACTATE in test [2] was 0.
The compound `COc1ccccc1[N+]1=C2CCCCCN2C(O)(c2ccc(F)cc2)C1.[Br-]` (stereo not shown) [F0524-0611] came in with a Score_SNARF in test [1] (Appendix I) of 0.5954. In test [2], this compound came in with a Score_LACTATE of 1.547.
On the same counts, the results for `COc1ccc(C2SCCN2S(=O)(=O)c2ccc(C)c(C)c2)cc1OC` (stereo not shown) [F1462-0491] are 0 and 0.
The compound `COc1ccccc1Nc1nc(N2CCOCC2)c2ccccc2n1` [F3007-0009] showed a Score_SNARF in test [1] (Appendix I) of 0. In test [2], this compound gave a Score_LACTATE of 0.
`CC(=O)N1CCCc2cc(S(=O)(=O)NCc3ccccc3)ccc21` [G855-0210]: the Score_SNARF in test [1] (Appendix I) worked out at 0.3123. In test [2], this compound registered a Score_LACTATE of 0.
`COc1ccc(C2(O)C[N+](c3cc(C)ccc3C)=C3SCCCN32)c(F)c1` (stereo not shown) [K404-0183] gave a Score_SNARF in test [1] (Appendix I) of 0. The Score_LACTATE in test [2] was 0.
`Cc1cccc([N+]2=C3SCCCN3C(O)(c3ccc(F)cc3)C2)c1` (stereo not shown) [K404-0394] displayed a Score_SNARF in test [1] (Appendix I) of 0.3309. Further, in test [2], the Score_LACTATE turned out to be 0.4429.
For `CCc1ccc(C2(O)C[N+](c3ccccc3OC)=C3CCCCN32)cc1` (stereo not shown) [K404-0672], the Score_SNARF in test [1] (Appendix I) was 1.014. The same compound returned a Score_LACTATE in test [2] of 1.356.
On the same counts, the results for `CCOc1ccc(C2(O)C[N+](c3ccccc3OC)=C3CCCCN32)cc1` (stereo not shown) [K404-0673] are 0.9751 and 2.024.
On the same counts, the results for `Cc1cccc([N+]2=C3CCCCN3C(O)(c3ccc(F)cc3)C2)c1C` (stereo not shown) [K404-0685] are 0.6562 and 0.6821.
Consider `Cc1ccc(C)c([N+]2=C3CCCCN3C(O)(c3ccc(F)cc3)C2)c1` (stereo not shown) [K404-0697], for which the Score_SNARF in test [1] (Appendix I) is 0.5123. The Score_LACTATE in test [2] stood at 0.6526.
`COc1ccc(C2(O)C[N+](c3cccc(C)c3)=C3CCCCN32)cc1` (stereo not shown) [K404-0796] registered a Score_SNARF in test [1] (Appendix I) of 0.6402. In test [2], this compound registered a Score_LACTATE of 0.
On the same counts, the results for `Cc1cccc([N+]2=C3CCCCN3C(O)(c3ccc(Cl)cc3)C2)c1` (stereo not shown) [K404-0800] are 0.7386 and 0.8385.
In turn, `COc1ccccc1[N+]1=C2CCCCCN2C(O)(c2ccccc2)C1` (stereo not shown) [K404-0838] registered a Score_SNARF in test [1] (Appendix I) of 0.8328. For the same compound, the Score_LACTATE in test [2] came out at 1.051.
Consider `COc1ccccc1[N+]1=C2CCCCCN2C(O)(c2cccc([N+](=O)[O-])c2)C1` (stereo not shown) [K404-0842], for which the Score in test [1] (setting [3]) is 0.169. The compound also displayed a Score_SNARF in test [1] (Appendix I) of 0.2022. For the same compound, the Score_LACTATE in test [2] is reported as 0.
Regarding `COc1ccc(OC)c([N+]2=C3CCCCCN3C(O)(c3ccc(C)cc3)C2)c1` (stereo not shown) [K404-0855], the Score_SNARF in test [1] (Appendix I) worked out at 0.4944. The same compound came in with a Score_LACTATE in test [2] of 0.6277.
In test [1] (Appendix I), `CCOc1ccc(C2(O)C[N+](c3cc(OC)ccc3OC)=C3CCCCCN32)cc1` (stereo not shown) [K404-0860] came in with a Score_SNARF of 0.6137. The Score_LACTATE in test [2] is recorded as 0.4766.
In turn, `COc1ccc(C2(O)C[N+](c3ccccc3C)=C3CCCCCN32)cc1OC` (stereo not shown) [K404-0906] showed a Score_SNARF in test [1] (Appendix I) of 0. Besides, in test [2], the Score_LACTATE stood at 0.
As to `Cc1cccc([N+]2=C3CCCCCN3C(O)(c3ccc(F)cc3)C2)c1` (stereo not shown) [K404-0910], in test [1] (Appendix I), the Score_SNARF is 0.5878. The compound further displayed a Score_LACTATE in test [2] of 0.6219.
For `Cc1cccc([N+]2=C3CCCCCN3C(O)(c3cccc([N+](=O)[O-])c3)C2)c1` (stereo not shown) [K404-0915], the Score in test [1] (setting [3]) was 0.
With `Cc1cccc(NS(=O)(=O)c2cc(-c3noc(C)n3)cs2)c1` [L287-0220], the Score_SNARF in test [1] (Appendix I) is reported as 0.5829. The same compound showed a Score_LACTATE in test [2] of 1.578.
The matching figures for `O=S(=O)(NC1CCCC1)c1cc(-c2noc(C3CCC3)n2)cs1` [L287-1221]: 0.5995 and 0.6602.
`CC(=O)c1ccc(NS(=O)(=O)c2cc(-c3noc(C4CCCC4)n3)cs2)cc1` [L287-1577] displayed a Score_SNARF in test [1] (Appendix I) of 1.059. The same compound came in with a Score_LACTATE in test [2] of 1.215.
In turn, `Cc1ccc(CNS(=O)(=O)c2cc(-c3noc(C4CCCC4)n3)cs2)cc1` [L287-1641] gave a Score_SNARF in test [1] (Appendix I) of 0.626. This compound showed a Score_LACTATE in test [2] of 0.8035.
The matching figures for `Cn1nccc1-c1csc(S(=O)(=O)Nc2ccc(F)cc2)c1` [L924-0760]: 0.7695 and 0.7898.

Source of the values: patent publication US12310967B2, “Compositions and methods of treatment for neurological disorders comprising motor neuron diseases” (Gliapharm SA, priority 2017, dated 2025).
